Data from ChEMBL document CHEMBL1201862, “PubChem BioAssay data set” (2004).
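Following 48 hours of exposure in 96-well plates, responses at five concentrations were used to interpolate endpoints linearly. GI50: concentration for 50% inhibition of growth.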 Active and inactive are the calls of the source. No stated cut-off is given here; in the data, active = GI50 up to about 1.1 µM and inactive = higher.

Assays:
Assay in all cases: NCI-60 cell line screen, 48 h
ACHN = system: ACHN
BT-549 = system: BT-549
CCRF-CEM = system: CCRF-CEM
EKVX = system: EKVX
HCT-15 = system: HCT-15
HOP-62 = system: HOP-62
HOP-92 = system: HOP-92
Hs-578T = system: Hs-578T
LOX IMVI = system: LOX IMVI
MCF7 = system: MCF7
Malme-3M = system: Malme-3M
OVCAR-4 = system: OVCAR-4
RPMI-8226 = system: RPMI-8226
RXF 393 = system: RXF 393
SF-539 = system: SF-539
SK-MEL-2 = system: SK-MEL-2
SNB-19 = system: SNB-19
SR = system: SR
MDA-N = system: MDA-N

| Structure (SMILES) | GI50 (ACHN) | GI50 (BT-549) | GI50 (CCRF-CEM) | GI50 (EKVX) | GI50 (HCT-15) | GI50 (HOP-62) | GI50 (HOP-92) | GI50 (Hs-578T) | GI50 (LOX IMVI) | GI50 (MCF7) | GI50 (Malme-3M) | GI50 (OVCAR-4) | GI50 (RPMI-8226) | GI50 (RXF 393) | GI50 (SF-539) | GI50 (SK-MEL-2) | GI50 (SNB-19) | GI50 (SR) | GI50 (MDA-N) |
| --- | --- | --- | --- | --- | --- | --- | --- | --- | --- | --- | --- | --- | --- | --- | --- | --- | --- | --- | --- |
| S=C1N=C(Cl)/C(=C\c2ccco2)N1 | > 100 µM (inactive) | > 100 µM (inactive) | > 100 µM (inactive) | > 100 µM (inactive) | > 100 µM | > 100 µM (inactive) | > 100 µM (inactive) | > 100 µM (inactive) | > 100 µM (inactive) | > 100 µM (inactive) | > 100 µM (inactive) | > 47.2 µM (inactive) | > 100 µM (inactive) | > 100 µM (inactive) | > 100 µM (inactive) | > 100 µM (inactive) | > 100 µM (inactive) | > 79.6 µM (inactive) |  |
| CC(=O)OC[C@@]12CC[C@H]3C(C)(C)CCC[C@]3(C)[C@H]1C[C@@H](C1=CC(=O)O[C@H]1O)O2 | 2.54 µM (inactive) |  | 1.24 µM (inactive) | 11.7 µM (inactive) | 2.05 µM | 10.4 µM (inactive) |  | 4.9 µM (inactive) | 1.34 µM (inactive) | 1.58 µM (inactive) |  |  | 2.15 µM (inactive) |  | 2.39 µM (inactive) | 2.15 µM (inactive) | 16.7 µM (inactive) | 0.625 µM (active) | 2.24 µM (inactive) |
| O=c1[nH]c(=O)c2c3n(cc2[nH]1)CCCCC3 | > 100 µM (inactive) |  | > 100 µM (inactive) | > 100 µM (inactive) | > 100 µM | > 100 µM (inactive) | > 100 µM (inactive) | > 100 µM (inactive) | > 100 µM (inactive) | > 100 µM (inactive) | > 100 µM (inactive) | > 100 µM (inactive) | > 100 µM (inactive) | > 100 µM (inactive) |  |  | > 100 µM (inactive) | > 100 µM (inactive) | > 100 µM (inactive) |
| CO/C(N)=C(C#N)/N=C/c1ccc2ccccc2c1 | 15.9 µM (inactive) | 18.5 µM (inactive) | 24.8 µM (inactive) | 64.3 µM (inactive) |  | 23.2 µM (inactive) | 34.5 µM (inactive) | 46.7 µM (inactive) | 33.2 µM (inactive) |  | > 100 µM (inactive) |  | 17.1 µM (inactive) | > 100 µM (inactive) |  | 31.1 µM (inactive) |  | 27.6 µM (inactive) | 8.41 µM (inactive) |
| CC(C)(Br)C(Br)CCC1(C(Br)CBr)CO1 (configuration not stated) | > 10 µM (inactive) | > 10 µM (inactive) | > 10 µM (inactive) | > 10 µM (inactive) |  | > 10 µM (inactive) | > 10 µM (inactive) |  |  | > 10 µM (inactive) |  | > 10 µM (inactive) | > 10 µM (inactive) | > 10 µM (inactive) | > 10 µM (inactive) |  | > 10 µM (inactive) | > 10 µM (inactive) | > 10 µM (inactive) |
| CCCC(=O)/C=C/S/C=C/C(=O)CCC | 2.7 µM (inactive) |  |  | 3.29 µM (inactive) | 2.36 µM | 11.4 µM (inactive) |  | 4.67 µM (inactive) | 2.38 µM (inactive) | 28.2 µM (inactive) | 7.28 µM (inactive) | 4.42 µM (inactive) |  | 4.9 µM (inactive) | 10.7 µM (inactive) | 27.5 µM (inactive) | 21.8 µM (inactive) |  |  |
| CC(C)(C)C1=NN=C2c3ccccc3C(=O)C21 (configuration not stated) | 43.1 µM (inactive) |  | 63.2 µM (inactive) | 27.4 µM (inactive) | 29.4 µM | > 100 µM (inactive) | 15.5 µM (inactive) | 20.7 µM (inactive) | 41.1 µM (inactive) | 51.1 µM (inactive) | 36.2 µM (inactive) | 38.8 µM (inactive) | 32.1 µM (inactive) | 81.3 µM (inactive) | 38.4 µM (inactive) | 39.8 µM (inactive) | 91.2 µM (inactive) | 24.8 µM (inactive) |  |
| CC(C)c1ccc(NC(=S)NC(=O)c2ccccc2)cc1 | 18.2 µM (inactive) | 24.9 µM (inactive) | 11.4 µM (inactive) | 30.8 µM (inactive) | 17.6 µM | 33.8 µM (inactive) | 40.9 µM (inactive) | 31.8 µM (inactive) | 15.3 µM (inactive) | 18.4 µM (inactive) | 24.5 µM (inactive) | 16.9 µM (inactive) | 23.7 µM (inactive) | 18.6 µM (inactive) | 36.2 µM (inactive) | 20 µM (inactive) | 48.4 µM (inactive) |  |  |
| N#C/C(C(=O)Nc1ccc(Cl)cc1)=C(/N)N1CCCCC1 | > 100 µM (inactive) | > 100 µM (inactive) | > 100 µM (inactive) | 45.1 µM (inactive) | > 100 µM | 41.3 µM (inactive) | > 100 µM (inactive) |  | 83.4 µM (inactive) | > 100 µM (inactive) |  |  | > 100 µM (inactive) |  | 75.7 µM (inactive) | > 100 µM (inactive) | 36.8 µM (inactive) | > 100 µM (inactive) | > 100 µM (inactive) |
| Cc1ccc(S(=O)(=O)OC2CN3CCC2CC3)cc1 (configuration not stated) | > 100 µM (inactive) | > 100 µM (inactive) | 15.5 µM (inactive) | > 100 µM (inactive) | > 100 µM | > 100 µM (inactive) | > 100 µM (inactive) | > 100 µM (inactive) | > 100 µM (inactive) | > 100 µM (inactive) | > 100 µM (inactive) | > 100 µM (inactive) | > 100 µM (inactive) | > 100 µM (inactive) | > 100 µM (inactive) | > 100 µM (inactive) | > 100 µM (inactive) | > 100 µM (inactive) |  |
| Cn1c(=O)c2c(n(C)c1=O)n1c(=O)c3ccccc3nc1n2C | > 100 µM (inactive) | > 100 µM (inactive) | > 100 µM (inactive) | > 100 µM (inactive) | > 100 µM | 39.9 µM (inactive) | > 100 µM (inactive) | 59.4 µM (inactive) | 83.9 µM (inactive) | > 100 µM (inactive) |  | > 100 µM (inactive) | > 100 µM (inactive) | > 100 µM (inactive) | > 100 µM (inactive) | > 100 µM (inactive) | > 100 µM (inactive) | 0.0237 µM (active) |  |
| Cc1csc(NNC(=O)Nc2ccccc2)n1 | > 100 µM (inactive) |  | > 100 µM (inactive) | > 100 µM (inactive) | > 100 µM | > 100 µM (inactive) |  | > 100 µM (inactive) | > 100 µM (inactive) | > 100 µM (inactive) | > 100 µM (inactive) | > 100 µM (inactive) | > 100 µM (inactive) | > 100 µM (inactive) | > 100 µM (inactive) | > 100 µM (inactive) | > 100 µM (inactive) | > 100 µM (inactive) | > 100 µM (inactive) |
| CC1=C(C#N)C(=O)CC(c2ccc(Cl)cc2)N(C)N1 (configuration not stated) | > 100 µM (inactive) |  |  |  | > 100 µM | > 100 µM (inactive) | > 100 µM (inactive) |  | > 100 µM (inactive) |  | > 100 µM (inactive) | > 100 µM (inactive) | > 100 µM (inactive) | > 100 µM (inactive) |  | > 100 µM (inactive) | > 100 µM (inactive) | > 100 µM (inactive) |  |
